Consider one molecule from publication PMC9414676, “Experimental Studies Indicate That ST-2223, the Antagonist of Histamine H3 and Dopamine D2/D3 Receptors, Restores Social Deficits and Neurotransmission Dysregulation in Mouse Model of Autism” (Pharmaceuticals, 2022).

“Also recorded” adds a separate entry of the source.

Assay [1] has as its target T1, hH3R (Homo sapiens, UniProt Q9Y5N1).
T1 construct: expressed in transfected cells
Put plainly: [3H]Nα-methylhistamine binding assay, membranes of HEK cells stably expressing hH3R.
Description: In vitro, ST-2223 was evaluated for its H3R affinity on membrane preparations of HEK-293 cells, which stably express the hH3R, by [^3H]N^α-methylhistamine displacement assays.

The target of assay [2] is T2, hD3R (Homo sapiens, UniProt P35462).
T2 construct: expressed in transfected cells; host or cells: CHO cells (from the earlier reading's assay name)
Description: [3H]spiperone displacement assay, CHO cells expressing hD3Rs. Conditions: ratio of Ki values. It is filed as binding.

The test system of assay [3] is BTBR mice. Description: Social approach test (SAT), sociability (novel mouse vs novel object). It is filed as in vivo. As for the experimental part:
(§1) All the mice were randomly divided into nine groups of 5–7 mice each. The mice were injected intraperitonially once daily for 21 days with different doses of ST2223 (2.5, 5, and 10 mg/kg, i.p.), ARP 1 mg/kg or vehicle (1% DMSO in 0.9% normal saline). Group I, B6 mice were injected with vehicle served as control. Group II, BTBR mice were treated with vehicle. Groups III–V, BTBR mice received i.p. injections of different doses of ST2223 (2.5, 5, and 10 mg/kg, i.p.), respectively. Group VI, BTBR mice were injected with ARP (1 mg/kg, i.p.). For abrogation studies, Group VII, BTBR mice were treated with ST2223 (5 mg/kg, i.p.) along with RAM (10 mg/kg, i.p.). Group VIII, B6 mice were co-injected with vehicle and RAM (10 mg/kg, i.p). All treatments and vehicle (VEH) were administered 30–45 min before each behavioral test. The doses of these drugs were selected based on previous reports. Behavioral testing was performed between 9:00 am and 3:00 pm in an order randomized by group and in the following sequence: social approach test (SAT) and open field locomotor test (OFL). The chronic treatment started one week before the behavioral test and was continued for a total of 21 days as described above (Figure 7). Following behavioral tests, i.e., on day 21 of systemic treatment, five of the animals were sacrificed. The animals were deeply anesthetized with pentobarbital (40 mg/kg, i.p., body weight). To wash out the blood, cardiac perfusion was carried out using 0.01 M phosphate-buffered saline (PBS) at pH 7.4. The brains were quickly removed and placed on an ice plate, where the cerebellum, hippocampus, prefrontal cortex, and striatum were excised from the brain and snap-frozen in liquid nitrogen for later LC-MS/MS analysis.
The social approach test (SAT) was performed using an automated three-chamber device (EthoVision® Software, Noldus, The Netherlands) as previously described. The transparent polycarbonate chamber is rectangular and is composed of three interconnected partitions (homemade), which are separated by two sliding doors. In brief, after 10 min of habituation, the study mouse was placed in the central chamber with the doors opened, and the mouse was given the choice to interact with either an empty plastic cup located in one side chamber, referred to as a novel object (NO), or a similar plastic cup with an unfamiliar mouse inside it located in the opposite chamber, referred to as a novel mouse (NM), which was matched in age, sex, and strain with test mouse. To avoid innate side preferences, the plastic cup for NO and NM were randomly placed in either chamber and the placement was changed between studies and between mice. For 10 min, the test mouse was allowed to explore all three chambers and cups, and the time spent interacting with NO and NM (sniffing) was automatically recorded by EthoVision® Software. Immediately after this session, a novel mouse is kept in the empty cup and is referred to as novel mouse (NM), and the mouse in the other cup from the earlier session is referred to as familiar mouse (FM). The study mouse is allowed to explore the three chambers for 10 min, and the time spent for interacting with both mice was automatically recorded, to assess social novelty preference. Eight groups of 7 mice/group were used for the SAT. To allow the direct comparison of social behavior between the treated groups, the sociability index (SI) and social novelty index (SNI) were calculated with the following formula, as previously described: SI=(Time exploring NM−Time exploring NO)/(Time exploring NM+Time exploring NO) SNI=(Time exploring NM−Time exploring FM)/(Time exploring NM+Time exploring FM)

Assay [4] concerns BTBR mice. Put plainly: Social approach test (SAT), social novelty preference (novel mouse vs familiar mouse). Format: in vivo. Conditions: for preference to novel mouse (NM) over familiar mouse (FM) vs VEH-treated BTBR mice: p < 0.001. As for the experimental part:
as §1
The social approach test (SAT) was performed using an automated three-chamber device (EthoVision® Software, Noldus, The Netherlands) as previously described. The transparent polycarbonate chamber is rectangular and is composed of three interconnected partitions (homemade), which are separated by two sliding doors. […] For 10 min, the test mouse was allowed to explore all three chambers and cups, and the time spent interacting with NO and NM (sniffing) was automatically recorded by EthoVision® Software. […] The study mouse is allowed to explore the three chambers for 10 min, and the time spent for interacting with both mice was automatically recorded, to assess social novelty preference. […] To allow the direct comparison of social behavior between the treated groups, the sociability index (SI) and social novelty index (SNI) were calculated with the following formula, as previously described: SI=(Time exploring NM−Time exploring NO)/(Time exploring NM+Time exploring NO) SNI=(Time exploring NM−Time exploring FM)/(Time exploring NM+Time exploring FM)

Assay [5] deals with histamine levels in BTBR mice brain. Put plainly: Histamine levels by LC-MS/MS in brain regions. Format: in vivo. Also on record: key to Histamine level: ↔: No significant alterations; ↑: significant increase; ↑↑: additional significant increase vs. ST-2223-treated mice; ↓: significant decrease. Conditions: ST-2223 5 mg/kg i.p. chronic, vs VEH-treated BTBR mice. As for the experimental part: as §1
Perfusion was done on anesthetized animals using 1X PBS as described previously. Different regions of the brain were snap frozen. Frozen tissues were then weighed and homogenized in a 10-fold volume of acetonitrile. For 50mg of tissue, 500 µL of acetonitrile and Internal standard mix were added and homogenized. Homogenates were centrifuged at 15,000 rcf for 15 min at 4 °C. Tissue levels of dopamine, acetylcholine, histamine, and their metabolites were assessed using LC-MS/MS. LC-MS/MS analysis was conducted utilizing Waters BEH C18 COLUMN (2.1 × 100 mm, 1.7 µm) using Waters Acquity UPLC Binary Solvent Manager and FTN Sample Manager. The system was run in gradient mode with mobile phase A consisting of LC-MS GRADE WATER + 0.1% FORMIC ACID and mobile phase B consisting of 100% ACETONITRILE. Mobile phase was duly filtered through 0.2 µm filter and degassed ultrasonically for 15 min prior to use. Separations were performed at room temperature with 0.3 mL/min flow rate gradient starting with 90% of A for up to 0.5 min. Then, % of A was decreased gradually until it reached 20% at 2.5 min after which at 3 min %A was brought back to the initial condition and left for equilibration for 2 more minutes before the next injection (total 5 min run time). The injection volume was kept at 1 µL. Mass spectrometric detection was performed in multiple reaction monitoring (MRM) mode with positive electrospray ionization (ESI+) on Xevo TQS mass spectrometer (Waters, Milford, MA) equipped with an electrospray ionization (ESI) source and triple quadrupole mass analyzer. MRM transitions and instrument parameters were set by tuning the instrument by infusing each analyte. MRM transitions taken for quantification were 146.2 > 87.1 for Acetylcholine, 112.2 > 95.2 for Histamine, 154.1 > 137.2 for Dopamine, 150.2 > 91.3 for Acetylcholine D4, and […] > 99.3 for Histamine D4. Capillary Voltage, Source Offset, Source Temperature, De solvation Temperature, Cone Gas Flow, De solvation Gas Flow, Collision Gas Flow, Nebulizer Gas Flow were set as 3.0 (kV), 60.0 (V), 150 (°C), 550 (°C), 150 (L/Hr), 1000 (L/Hr), 0.13 (mL/min), and 7 (Bar), correspondingly. […]

T2 sequence (P35462 whole entry): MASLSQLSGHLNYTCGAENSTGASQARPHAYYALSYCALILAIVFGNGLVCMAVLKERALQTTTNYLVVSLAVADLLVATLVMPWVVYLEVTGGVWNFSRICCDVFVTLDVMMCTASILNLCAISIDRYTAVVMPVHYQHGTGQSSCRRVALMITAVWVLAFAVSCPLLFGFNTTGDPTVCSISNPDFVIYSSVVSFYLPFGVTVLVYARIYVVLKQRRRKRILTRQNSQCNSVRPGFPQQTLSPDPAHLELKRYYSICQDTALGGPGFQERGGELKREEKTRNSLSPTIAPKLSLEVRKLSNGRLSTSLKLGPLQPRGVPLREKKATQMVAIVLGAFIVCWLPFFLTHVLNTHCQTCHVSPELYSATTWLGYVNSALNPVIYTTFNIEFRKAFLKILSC
T1 sequence (Q9Y5N1 whole entry): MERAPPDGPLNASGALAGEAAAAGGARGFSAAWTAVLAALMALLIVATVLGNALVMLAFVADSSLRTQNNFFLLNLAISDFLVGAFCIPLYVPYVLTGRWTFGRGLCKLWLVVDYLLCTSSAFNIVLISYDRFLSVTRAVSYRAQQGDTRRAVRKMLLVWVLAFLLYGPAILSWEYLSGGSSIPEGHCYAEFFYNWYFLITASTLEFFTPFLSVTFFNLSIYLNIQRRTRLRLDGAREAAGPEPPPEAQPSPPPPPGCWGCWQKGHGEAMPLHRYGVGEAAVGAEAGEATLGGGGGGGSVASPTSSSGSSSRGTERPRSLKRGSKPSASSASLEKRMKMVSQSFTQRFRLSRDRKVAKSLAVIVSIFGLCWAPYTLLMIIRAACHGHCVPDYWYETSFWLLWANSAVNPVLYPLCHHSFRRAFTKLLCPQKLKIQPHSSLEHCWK

Turning to `COc1ccccc1N1CCN(CCCCNC(=O)c2ccc3cc(OCCCN4CCCCC4)ccc3c2)CC1` [ST-2223, N-(4-(4-(2-methoxyphenyl)piperazin-1-yl)butyl)-6-(3-(piperidin-1-yl)propoxy)-2-naphthamide], the affinity in assay [1] corresponds to a Ki of 4.6 nM. For the same molecule, in assay [2], the “ratio of hD2Rs/hD3Rs” value amounted to 10. Besides, the “time spent with novel mouse (NM) vs novel object (NO)” value in assay [3] (ST-2223 2.5 mg/kg i.p. chronic, p = 0.48) was “unsuccessful to exert remarked improvement”; in assay [3] (ST-2223 5 mg/kg i.p. chronic, p < 0.01) it was “significantly enhanced time spent with the NM”; in assay [3] (ST-2223 10 mg/kg i.p. chronic, p = 0.53), “unsuccessful to exert remarked improvement”. In addition, the “exploring time spent with NM vs VEH-treated BTBR mice” value in assay [3] (ST-2223 2.5 mg/kg i.p. chronic, p > 0.05) was “not a significant level”; in assay [3] (ST-2223 5 mg/kg i.p. chronic, p < 0.001) it was “significantly improved exploring time spent with NM”. Further, the “sociability index (SI) vs VEH-treated BTBR mice” value in assay [3] (ST-2223 5 mg/kg i.p. chronic, p < 0.05) was “significant improvement in sociability”. For the same molecule, in assay [4] (ST-2223 5 mg/kg i.p. chronic, no significant difference to control B6), the “social novelty index (SNI)” value is “significantly improved social novelty performance”. In addition, the “preference to novel mouse (NM) over familiar mouse (FM) vs VEH-treated BTBR mice” value in assay [4] (ST-2223 5 mg/kg i.p. chronic) and in assay [4] (ST-2223 10 mg/kg i.p. chronic) was “enhanced preference to stranger NM over FM” in each case. In addition, the Histamine level result in assay [5] (Cerebellum) is “↑ ^b”; in assay [5] (Hippocampus), “↔”; in assay [5] (Prefrontal cortex) it was “↔”; in assay [5] (Striatum), “↑ ^b”. Further, in assay [5] (5 mg/kg), the “levels of histamine in brain regions” value was “significantly increased the levels of histamine in cerebellum and striatum; also recorded: without significant enhancement of brain histamine in hippocampal tissues”.
